Laboratory results published in ChEMBL document CHEMBL1201862, “PubChem BioAssay data set” (2004).
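Grown in 96-well plates, cells were treated for 48 hours with each compound at five concentrations. Insufficient inhibition: endpoint recorded as highest concentration tested. GI50 = concentration required for 50% inhibition of growth.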 The source made the active and inactive calls. Cut-off read from the data, not from the text of the source: active = GI50 up to about 1.1 µM and inactive = higher.

Legend:
Experiment in all cases: NCI tumour cell line growth inhibition, 48 h
RPMI-8226 = system: RPMI-8226
SK-MEL-28 = system: SK-MEL-28
UACC-62 = system: UACC-62
SF-539 = system: SF-539
HOP-62 = system: HOP-62
SW-620 = system: SW-620
ACHN = system: ACHN
SN12C = system: SN12C
COLO 205 = system: COLO 205
BT-549 = system: BT-549
SF-268 = system: SF-268
HCC 2998 = system: HCC 2998
Hs-578T = system: Hs-578T
HOP-92 = system: HOP-92
SF-295 = system: SF-295
CAKI-1 = system: CAKI-1
K562 = system: K562
NCI-H226 = system: NCI-H226
T47D = system: T47D

C=CCOC(C)(C)C1=CCC(C)CC1 (stereo unspecified)
GI50 (RPMI-8226): > 100 µM (inactive) | GI50 (SK-MEL-28): > 100 µM (inactive) | GI50 (UACC-62): > 100 µM (inactive) | GI50 (SF-539): > 100 µM (inactive) | GI50 (HOP-62): > 100 µM (inactive) | GI50 (SW-620): > 100 µM (inactive) | GI50 (ACHN): > 100 µM (inactive) | GI50 (SN12C): > 100 µM (inactive) | GI50 (COLO 205): > 100 µM (inactive) | GI50 (BT-549): > 100 µM (inactive) | GI50 (SF-268): > 100 µM (inactive) | GI50 (HCC 2998): > 100 µM (inactive) | GI50 (Hs-578T): > 100 µM (inactive) | GI50 (HOP-92): > 100 µM (inactive) | GI50 (SF-295): > 100 µM (inactive) | GI50 (CAKI-1): > 100 µM (inactive)

Cc1nc(-n2nc(-c3ccccc3)cc2-c2ccccc2)sc1C(=O)CC(=O)C(=O)Nc1ccc(O)cc1
GI50 (K562): > 100 µM (inactive) | GI50 (RPMI-8226): > 100 µM (inactive) | GI50 (UACC-62): > 100 µM (inactive) | GI50 (SF-539): > 100 µM (inactive) | GI50 (HOP-62): > 100 µM (inactive) | GI50 (SW-620): > 100 µM (inactive) | GI50 (ACHN): > 100 µM (inactive) | GI50 (SN12C): > 100 µM (inactive) | GI50 (COLO 205): > 100 µM (inactive) | GI50 (SF-268): > 100 µM (inactive) | GI50 (HCC 2998): > 100 µM (inactive) | GI50 (SF-295): > 100 µM (inactive) | GI50 (CAKI-1): > 100 µM (inactive) | GI50 (NCI-H226): > 100 µM (inactive)

CC1=CC(=O)CC(C)(C)C1/C=C/C(C)=C/C=C/C(C)=C/C=C/C=C(C)/C=C/C=C(C)/C=C/C1=C(C)CC(O)CC1(C)C (stereo unspecified)
GI50 (K562): 0.745 µM (active) | GI50 (RPMI-8226): 9.31 µM (inactive) | GI50 (SK-MEL-28): 28.4 µM (inactive) | GI50 (SF-539): 47.2 µM (inactive) | GI50 (T47D): 30.9 µM (inactive) | GI50 (HOP-62): 47 µM (inactive) | GI50 (SW-620): 15.7 µM (inactive) | GI50 (ACHN): 28.6 µM (inactive) | GI50 (SF-268): 50.9 µM (inactive) | GI50 (HCC 2998): 23.8 µM (inactive) | GI50 (Hs-578T): 38.9 µM (inactive) | GI50 (HOP-92): 27.3 µM (inactive) | GI50 (SF-295): 60.8 µM (inactive) | GI50 (CAKI-1): 39.3 µM (inactive) | GI50 (NCI-H226): > 100 µM (inactive)

C=CCOC(=O)NC1C(OC(C)[C@@H](NC(=O)OCc2ccccc2)C(=O)OC(C)(C)C)OC(COC(C)=O)C(OC(C)=O)C1OC(C)=O (stereo partly specified)
GI50 (K562): 72.9 µM (inactive) | GI50 (RPMI-8226): 62.4 µM (inactive) | GI50 (SK-MEL-28): > 100 µM (inactive) | GI50 (UACC-62): > 100 µM (inactive) | GI50 (SF-539): > 100 µM (inactive) | GI50 (HOP-62): > 100 µM (inactive) | GI50 (SW-620): > 100 µM (inactive) | GI50 (ACHN): > 100 µM (inactive) | GI50 (SN12C): 43.4 µM (inactive) | GI50 (COLO 205): > 100 µM (inactive) | GI50 (SF-268): > 100 µM (inactive) | GI50 (HCC 2998): > 100 µM (inactive) | GI50 (Hs-578T): 72.4 µM (inactive) | GI50 (HOP-92): > 100 µM (inactive) | GI50 (SF-295): > 100 µM (inactive) | GI50 (CAKI-1): > 100 µM (inactive) | GI50 (NCI-H226): > 100 µM (inactive)

COc1cc(C2SCC(=O)N2Cc2ccccc2)cc(OC)c1OC (stereo unspecified)
GI50 (K562): > 100 µM (inactive) | GI50 (RPMI-8226): > 100 µM (inactive) | GI50 (SK-MEL-28): > 100 µM (inactive) | GI50 (UACC-62): 97.9 µM (inactive) | GI50 (SF-539): > 100 µM (inactive) | GI50 (SW-620): > 100 µM (inactive) | GI50 (ACHN): > 100 µM (inactive) | GI50 (SN12C): > 100 µM (inactive) | GI50 (COLO 205): > 100 µM (inactive) | GI50 (BT-549): > 100 µM (inactive) | GI50 (SF-268): > 100 µM (inactive) | GI50 (HCC 2998): > 100 µM (inactive) | GI50 (Hs-578T): > 100 µM (inactive) | GI50 (HOP-92): 13.2 µM (inactive) | GI50 (SF-295): > 100 µM (inactive) | GI50 (CAKI-1): > 100 µM (inactive) | GI50 (NCI-H226): > 100 µM (inactive)

CCOC(=O)C(C#N)C1=CC(=O)C(=O)c2ccc(OC)cc21 (stereo unspecified)
GI50 (K562): 36.6 µM (inactive) | GI50 (RPMI-8226): > 100 µM (inactive) | GI50 (SK-MEL-28): 21.3 µM (inactive) | GI50 (UACC-62): 15.2 µM (inactive) | GI50 (SF-539): 18.4 µM (inactive) | GI50 (T47D): 14.9 µM (inactive) | GI50 (HOP-62): 22 µM (inactive) | GI50 (SW-620): 18.4 µM (inactive) | GI50 (ACHN): 15.3 µM (inactive) | GI50 (SN12C): 18.6 µM (inactive) | GI50 (COLO 205): 17 µM (inactive) | GI50 (SF-268): 30.2 µM (inactive) | GI50 (HCC 2998): 16.2 µM (inactive) | GI50 (Hs-578T): 18.1 µM (inactive) | GI50 (SF-295): 23.3 µM (inactive) | GI50 (CAKI-1): 29 µM (inactive) | GI50 (NCI-H226): 21.6 µM (inactive)

NC(=O)C(=CN1CC(=O)NC1=S)C(N)=O
GI50 (SK-MEL-28): > 100 µM (inactive) | GI50 (UACC-62): > 100 µM (inactive) | GI50 (SF-539): > 100 µM (inactive) | GI50 (T47D): > 100 µM (inactive) | GI50 (HOP-62): > 100 µM (inactive) | GI50 (SW-620): > 100 µM (inactive) | GI50 (ACHN): > 100 µM (inactive) | GI50 (SN12C): > 100 µM (inactive) | GI50 (COLO 205): > 100 µM (inactive) | GI50 (BT-549): > 100 µM (inactive) | GI50 (SF-268): > 100 µM (inactive) | GI50 (HCC 2998): > 100 µM (inactive) | GI50 (HOP-92): > 100 µM (inactive) | GI50 (SF-295): > 100 µM (inactive) | GI50 (CAKI-1): > 100 µM (inactive) | GI50 (NCI-H226): > 100 µM (inactive)

O=[N+]([O-])/C=C(\CS(=O)(=O)c1ccccc1)c1ccc2c(c1)OCO2
GI50 (K562): 66.5 µM (inactive) | GI50 (RPMI-8226): 87.1 µM (inactive) | GI50 (SK-MEL-28): 69.2 µM (inactive) | GI50 (UACC-62): 48.2 µM (inactive) | GI50 (SF-539): > 100 µM (inactive) | GI50 (T47D): > 100 µM (inactive) | GI50 (HOP-62): 92.9 µM (inactive) | GI50 (SW-620): 75.3 µM (inactive) | GI50 (ACHN): 45.6 µM (inactive) | GI50 (SN12C): 39.7 µM (inactive) | GI50 (COLO 205): 53.5 µM (inactive) | GI50 (SF-268): 27.2 µM (inactive) | GI50 (HCC 2998): > 100 µM (inactive) | GI50 (Hs-578T): 38.1 µM (inactive) | GI50 (HOP-92): > 100 µM (inactive) | GI50 (SF-295): 36.7 µM (inactive) | GI50 (CAKI-1): 29.2 µM (inactive) | GI50 (NCI-H226): 30 µM (inactive)

CC(C)(Cl)C(Br)CCC(Br)(CCl)C(Cl)CBr (stereo unspecified)
GI50 (K562): > 10 µM (inactive) | GI50 (RPMI-8226): > 10 µM (inactive) | GI50 (SK-MEL-28): > 10 µM (inactive) | GI50 (SF-539): > 10 µM (inactive) | GI50 (T47D): > 10 µM (inactive) | GI50 (HOP-62): > 10 µM (inactive) | GI50 (SW-620): > 10 µM (inactive) | GI50 (ACHN): > 10 µM (inactive) | GI50 (SN12C): > 10 µM (inactive) | GI50 (COLO 205): > 10 µM (inactive) | GI50 (HCC 2998): > 10 µM (inactive) | GI50 (Hs-578T): > 10 µM (inactive) | GI50 (HOP-92): > 10 µM (inactive) | GI50 (SF-295): > 10 µM (inactive) | GI50 (CAKI-1): > 10 µM (inactive) | GI50 (NCI-H226): > 10 µM (inactive)

Cc1ccc(-c2c(C#N)c(S)n(NS(=O)(=O)c3ccccc3)c(=O)c2C#N)cc1
GI50 (K562): 33.6 µM (inactive) | GI50 (RPMI-8226): 23.3 µM (inactive) | GI50 (SK-MEL-28): > 100 µM (inactive) | GI50 (UACC-62): 23.9 µM (inactive) | GI50 (SF-539): 20.6 µM (inactive) | GI50 (SW-620): 29 µM (inactive) | GI50 (ACHN): 28.1 µM (inactive) | GI50 (SN12C): 27.9 µM (inactive) | GI50 (COLO 205): 38.5 µM (inactive) | GI50 (BT-549): 28.2 µM (inactive) | GI50 (HCC 2998): 47 µM (inactive) | GI50 (HOP-92): 24.1 µM (inactive) | GI50 (SF-295): 34 µM (inactive) | GI50 (CAKI-1): 31.9 µM (inactive) | GI50 (NCI-H226): 17.9 µM (inactive)

Cc1ccc(-n2c3nc(=O)n(C)c(=O)c-3nc3ccccc32)cc1
GI50 (K562): 17 µM (inactive) | GI50 (RPMI-8226): 12.5 µM (inactive) | GI50 (UACC-62): 2.3 µM (inactive) | GI50 (SF-539): 27.8 µM (inactive) | GI50 (HOP-62): 43.9 µM (inactive) | GI50 (SW-620): 5.75 µM (inactive) | GI50 (ACHN): 3.26 µM (inactive) | GI50 (SN12C): 11.5 µM (inactive) | GI50 (COLO 205): 4.47 µM (inactive) | GI50 (SF-268): 35.7 µM (inactive) | GI50 (HCC 2998): 4.61 µM (inactive) | GI50 (SF-295): 11.2 µM (inactive) | GI50 (CAKI-1): 21.9 µM (inactive) | GI50 (NCI-H226): 17.3 µM (inactive)

OC1C#CCSCC#C/C=C\1 (stereo unspecified)
GI50 (K562): 17.9 µM (inactive) | GI50 (SK-MEL-28): 89.5 µM (inactive) | GI50 (UACC-62): > 100 µM (inactive) | GI50 (SF-539): > 100 µM (inactive) | GI50 (HOP-62): > 100 µM (inactive) | GI50 (SW-620): 18.4 µM (inactive) | GI50 (ACHN): > 100 µM (inactive) | GI50 (SN12C): 94 µM (inactive) | GI50 (COLO 205): 15.2 µM (inactive) | GI50 (BT-549): > 100 µM (inactive) | GI50 (SF-268): > 100 µM (inactive) | GI50 (HCC 2998): > 100 µM (inactive) | GI50 (Hs-578T): 34 µM (inactive) | GI50 (HOP-92): 62.2 µM (inactive) | GI50 (SF-295): > 100 µM (inactive) | GI50 (NCI-H226): > 100 µM (inactive)
